“And” between values parts separate entries of the source, which are not always exact repeats. Identical values can stand only once. One block for each compound: values may come before it.
Tested on: 287954-098-R-J1 tumor spheroid viability
Test: Anticancer human tumor 287954-098-R-J1 patient-derived Ewing sarcoma cell line growth inhibition
Conditions: spheroids with HUVEC and MSC; for viability, T/C: stronger effect = lower value
Method in brief: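 Complex spheroids of malignant cells with endothelial cells and mesenchymal stem cells; agents alone or combined, from near clinical Cmax (or 10 microM if unknown) down in half-log steps, 0.25% DMSO final.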

[1] = curve of first compound, second compound 1 µM
[2] = curve of first compound, second compound 3.16 µM
[3] = curve of first compound, second compound 10 µM
[4] = curve of first compound, second compound 31.6 µM
[5] = curve of first compound, second compound 100 µM
[6] = second compound 1 µM, first compound 0.0316 µM
[7] = second compound 1 µM, first compound 0.1 µM
[8] = second compound 1 µM, first compound 0.316 µM
[9] = second compound 1 µM, first compound 1 µM
[10] = second compound 1 µM, first compound 3.16 µM
[11] = second compound 1 µM, first compound 10 µM
[12] = second compound 3.16 µM, first compound 0.0316 µM
[13] = second compound 3.16 µM, first compound 0.1 µM
[14] = second compound 3.16 µM, first compound 0.316 µM
[15] = second compound 3.16 µM, first compound 1 µM
[16] = second compound 3.16 µM, first compound 3.16 µM
[17] = second compound 3.16 µM, first compound 10 µM
[18] = second compound 10 µM, first compound 0.0316 µM
[19] = second compound 10 µM, first compound 0.1 µM
[20] = second compound 10 µM, first compound 0.316 µM
[21] = second compound 10 µM, first compound 1 µM
[22] = second compound 10 µM, first compound 3.16 µM
[23] = second compound 10 µM, first compound 10 µM
[24] = second compound 31.6 µM, first compound 0.0316 µM
[25] = second compound 31.6 µM, first compound 0.1 µM
[26] = second compound 31.6 µM, first compound 0.316 µM
[27] = second compound 31.6 µM, first compound 1 µM
[28] = second compound 31.6 µM, first compound 3.16 µM
[29] = second compound 31.6 µM, first compound 10 µM
[30] = second compound 100 µM, first compound 0.0316 µM
[31] = second compound 100 µM, first compound 0.1 µM
[32] = second compound 100 µM, first compound 0.316 µM
[33] = second compound 100 µM, first compound 1 µM
[34] = second compound 100 µM, first compound 3.16 µM
[35] = second compound 100 µM, first compound 10 µM
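Also: spheroids exposed to compound for 7 days before viability readout.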
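For viability, T/C in this document: luminescent signal taken as surrogate of viable cell content; 100% = DMSO vehicle control viability and lower means growth inhibition.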

SMILES: Cn1ncnc1[C@H]1c2n[nH]c(=O)c3cc(F)cc(c23)N[C@@H]1c1ccc(F)cc1
viability, T/C (compound 0.00949 µM): 112% and 99.5% and 92.6% | viability, T/C (compound 0.03 µM): 101% and 104% and 107% | viability, T/C (compound 0.0949 µM): 98.5% and 97% and 105% | viability, T/C (compound 0.3 µM): 97.8% and 95.6% and 94.2% | viability, T/C (compound 0.949 µM): 2.74% and 25.4% and 16.7% | viability, T/C (compound 3 µM): 2.53% and 1.95% and 1.33% | IC50 (curve of compound): 536 nM and 633 nM and 579 nM

IC50 (compound alone, run of 10/17/2019): > 100000 nM
SMILES: Cn1nnc2c(C(N)=O)ncn2c1=O
viability, T/C (compound 1 µM): 101% [middle of 10 runs] | viability, T/C (compound 3.16 µM): 101% [middle of 10 runs] | viability, T/C (compound 10 µM): 105% [middle of 10 runs] | viability, T/C (compound 31.6 µM): 111% [middle of 10 runs] | viability, T/C (compound 100 µM): 100% [middle of 10 runs]

SMILES: [2H]c1nc(C)nc([2H])c1-c1cc(NC[C@@H](C)c2cccc3c(C(=O)NC)ccnc23)ncn1
viability, T/C (compound 0.0316 µM): 96.4% and 109% and 110% | viability, T/C (compound 0.1 µM): 101% and 107% and 112% | viability, T/C (compound 0.316 µM): 95.5% and 108% and 106% | viability, T/C (compound 1 µM): 104% and 102% and 108% | viability, T/C (compound 3.16 µM): 98.3% and 96.3% and 100% | viability, T/C (compound 10 µM): 101% and 103% and 109% | IC50 (curve of compound): > 10000 nM

SMILES: COc1cc(C)[nH]c(=O)c1CN1CCc2c(Cl)cc(C(OC)C3COC3)c(Cl)c2C1=O (configuration not stated)
viability, T/C (compound 0.0316 µM): 97.7% and 96.7% and 96.6% | viability, T/C (compound 0.1 µM): 94.9% and 102% and 98.6% | viability, T/C (compound 0.316 µM): 82.7% and 91.7% and 95.5% | viability, T/C (compound 1 µM): 93.9% and 89.7% and 90.5% | viability, T/C (compound 3.16 µM): 95.1% and 83.6% and 94.9% | viability, T/C (compound 10 µM): 93% and 92.8% and 93.6% | IC50 (curve of compound): > 10000 nM

SMILES: CNCc1ccc(-c2cc(-c3nc(-c4ccc(S(=O)(=O)C(C)C)cc4)cnc3N)on2)cc1 + COc1cc2c(cc1O)CCNC21CSC2c3c(OC(C)=O)c(C)c4c(c3C(COC1=O)N1C(O)C3Cc5cc(C)c(OC)c(O)c5C(C21)N3C)OCO4
IC50 (curve of first compound, second compound 30 pM): 516 nM | IC50 (curve of first compound, second compound 94.9 pM): 207 nM | IC50 (curve of first compound, second compound 0.0003 µM): 154 nM | IC50 (curve of first compound, second compound 0.000949 µM): < 9.49 nM | IC50 (curve of first compound, second compound 0.003 µM): < 9.49 nM | viability, T/C (second compound 30 pM, first compound 0.00949 µM): 109% | viability, T/C (second compound 30 pM, first compound 0.03 µM): 108% | viability, T/C (second compound 30 pM, first compound 0.0949 µM): 110% | viability, T/C (second compound 30 pM, first compound 0.3 µM): 94.5% | viability, T/C (second compound 30 pM, first compound 0.949 µM): 0.18% | viability, T/C (second compound 30 pM, first compound 3 µM): 0.12% | viability, T/C (second compound 94.9 pM, first compound 0.00949 µM): 111% | viability, T/C (second compound 94.9 pM, first compound 0.03 µM): 106% | viability, T/C (second compound 94.9 pM, first compound 0.0949 µM): 113% | viability, T/C (second compound 94.9 pM, first compound 0.3 µM): 21.7% | viability, T/C (second compound 94.9 pM, first compound 0.949 µM): 0.11% | viability, T/C (second compound 94.9 pM, first compound 3 µM): 0.14% | viability, T/C (second compound 0.0003 µM, first compound 0.00949 µM): 110% | viability, T/C (second compound 0.0003 µM, first compound 0.03 µM): 115% | viability, T/C (second compound 0.0003 µM, first compound 0.0949 µM): 85.7% | viability, T/C (second compound 0.0003 µM, first compound 0.3 µM): 0.62% | viability, T/C (second compound 0.0003 µM, first compound 0.949 µM): 0.04% | viability, T/C (second compound 0.0003 µM, first compound 3 µM): 0.13% | viability, T/C (second compound 0.000949 µM, first compound 0.00949 µM): 0.42% | viability, T/C (second compound 0.000949 µM, first compound 0.03 µM): 0.41% | viability, T/C (second compound 0.000949 µM, first compound 0.0949 µM): 0.26% | viability, T/C (second compound 0.000949 µM, first compound 0.3 µM): 0.07% | viability, T/C (second compound 0.000949 µM, first compound 0.949 µM): 0.03% | viability, T/C (second compound 0.000949 µM, first compound 3 µM): 0.14% | viability, T/C (second compound 0.003 µM, first compound 0.00949 µM): 0.21% | viability, T/C (second compound 0.003 µM, first compound 0.03 µM): 0.22% | viability, T/C (second compound 0.003 µM, first compound 0.0949 µM): 0.18% | viability, T/C (second compound 0.003 µM, first compound 0.3 µM): 0.17% | viability, T/C (second compound 0.003 µM, first compound 0.949 µM): 0.16% | viability, T/C (second compound 0.003 µM, first compound 3 µM): 0.24%

SMILES: CC(C)n1c(=O)n(C)c2cnc3cc(F)c(-c4ccc(OCCCN5CCCCC5)nc4)cc3c21 + Cn1nnc2c(C(N)=O)ncn2c1=O
IC50 [1]: > 10000 nM | IC50 [2]: > 10000 nM | IC50 [3]: > 10000 nM | IC50 [4]: > 10000 nM | IC50 [5]: > 10000 nM | viability, T/C [6]: 97% | viability, T/C [7]: 97.6% | viability, T/C [8]: 110% | viability, T/C [9]: 108% | viability, T/C [10]: 105% | viability, T/C [11]: 97.9% | viability, T/C [12]: 106% | viability, T/C [13]: 110% | viability, T/C [14]: 110% | viability, T/C [15]: 112% | viability, T/C [16]: 118% | viability, T/C [17]: 85.9% | viability, T/C [18]: 109% | viability, T/C [19]: 105% | viability, T/C [20]: 104% | viability, T/C [21]: 109% | viability, T/C [22]: 118% | viability, T/C [23]: 79.6% | viability, T/C [24]: 113% | viability, T/C [25]: 110% | viability, T/C [26]: 105% | viability, T/C [27]: 113% | viability, T/C [28]: 113% | viability, T/C [29]: 85.2% | viability, T/C [30]: 92.5% | viability, T/C [31]: 104% | viability, T/C [32]: 94.3% | viability, T/C [33]: 112% | viability, T/C [34]: 109% | viability, T/C [35]: 103%

SMILES: Cc1cc(C)c(CNC(=O)c2cc(-c3ccc(CN4CCOCC4)cc3)cc3c2cnn3C2CCCC2)c(=O)[nH]1 + Cn1nnc2c(C(N)=O)ncn2c1=O
IC50 [1]: > 10000 nM | IC50 [2]: > 10000 nM | IC50 [3]: > 10000 nM | IC50 [4]: > 10000 nM | IC50 [5]: > 10000 nM | viability, T/C [6]: 104% | viability, T/C [7]: 100% | viability, T/C [8]: 100% | viability, T/C [9]: 103% | viability, T/C [10]: 105% | viability, T/C [11]: 115% | viability, T/C [12]: 105% | viability, T/C [13]: 107% | viability, T/C [14]: 100% | viability, T/C [15]: 108% | viability, T/C [16]: 107% | viability, T/C [17]: 108% | viability, T/C [18]: 110% | viability, T/C [19]: 108% | viability, T/C [20]: 107% | viability, T/C [21]: 106% | viability, T/C [22]: 99.3% | viability, T/C [23]: 111% | viability, T/C [24]: 108% | viability, T/C [25]: 117% | viability, T/C [26]: 109% | viability, T/C [27]: 105% | viability, T/C [28]: 108% | viability, T/C [29]: 105% | viability, T/C [30]: 108% | viability, T/C [31]: 113% | viability, T/C [32]: 111% | viability, T/C [33]: 107% | viability, T/C [34]: 96.2% | viability, T/C [35]: 104%
